Results reported in patent publication US10369138B2, “Monobactam organic compounds for the treatment of bacterial infections” (Novartis AG, priority 2014, dated 2019).
≈ marks a conversion by molar mass, not a printed value.

Columns and labels:
E. coli containing KPC-2 = test: MIC by broth microdilution, E. coli containing KPC-2 (Ec KPC2 Iso); format: cell-based; conditions: Escherichia coli, read-out: Ec KPC2 Iso (MIC), E. coli containing KPC-2 (carbapenemase from Klebsiella pneumoniae)
Procedure: (§1) Bacterial isolates were cultivated from −70° C. frozen stocks by two consecutive overnight passages at 35° C. in ambient air on 5% blood agar (Remel, Lenexa, Kans.). Quality control and P. aeruginosa ATCC 27853) is from the American Type Culture Collection (ATCC; Rockville, Md.) and PAO1 was received from Dr. K. Poole.
Strain NB27273 (BW25113 pspB::Km^r) was obtained from the Keio transposon insertion collection. The strain has the pspB gene replaced by a kanamycin resistance marker (BW25113 pspB::Km^r). This strain was cured of the transposon in pspB via FLP recombinase using published methodology. The resulting strain, BW25113 pspB, was used as a host for multicopy vectors expressing key β-lactamases. Multicopy plasmids directing constitutive expression of β-lactamases were established as follows: Synthetic, codon optimized genes encoding E. coli KPC2 and SHV12 β-lactamases were made by DNA2.0 (Palo Alto, Calif.). Each of the synthetic fragments were designed to contain NotI and NcoI restriction sites at their termini, allowing ligation into a NotI/NcoI digested pET28a(+) derivative for protein expression. […] The codon optimized nucleotide sequences and relevant primer recognition information is shown below:
The PCR products were then digested with XhoI and EcoRI and ligated into similarly digested plasmid pAH63-pstS(BlaP). Plasmid pAH63-pstS(BlaP) is a derivative of plasmid pAH63 (J Bacteriol: 183(21): 6384-6393) made by cloning the TEM-1 (bla) promoter and signal peptide encoding region from plasmid pBAD (J Bacteriol. 1995 July 177(14):4121-30) into plasmid pAH63. This fragment was PCR amplified from pBAD using primer pair E192 (ttca[…]) (SEQ ID NO:13) and E194 ([…]) (SEQ ID NO:14), digested with PstI and BamHI and inserted into similarly digested plasmid pAH63. Therefore, expression of β-lactamases from pAH63-pstS(BlaP) based constructs is constitutive and the signal sequence is provided to direct these proteins to the periplasm. Plasmid pAH63 based vectors are used for insertion into the genome in single copy, however, to provide higher expression levels to allow more sensitive detection of the susceptibility of compounds to the β-lactamases, the expression inserts contained in these vectors were moved to the replicative multicopy vector pBAD-Kan (J Bacteriol. 1995 July 177(14):4121-30). To accomplish this, the inserts encompassing the β-lactamase genes, with the associated TEM promoter and signal sequences, were PCR amplified from their corresponding vectors using primer E269 (ccg[…]) (SEQ ID NO:15) and E202 (aatc[…]) (SEQ ID NO:16) for the KPC2 construct and E204 (aatc[…]) (SEQ ID NO:17) for the SHV12 construct. These fragments were then digested with XbaI and EcoRI, and each was inserted into pBAD18-kan that had been digested with the same enzymes to generate a pair of multicopy vectors expressing KPC2 and SHV12 respectively. These vectors were transformed into BW25113 pspB to generate strains NB27273-CDY0033 (expressing KPC2) and NB27273-CDY0030 (expressing SHV12). The pBAD18-kan vector also contains the TEM promoter region and signal sequence, (but lacks any intact β-lactamase genes) and was transformed into BW25113 pspB using standard protocols to generate the control strain NB27273-CDY0026. Expression of the β-lactamases was confirmed by verifying decreased susceptibility to example test antibiotics that are known substrates of KPC2 or SHV12. Susceptibility Testing
Minimal Inhibitory Concentrations (MICs) were determined by the broth microdilution method in accordance with Clinical and Laboratories Institute (CLSI) guidelines. In brief, fresh overnight bacterial cultures were suspended in sterile saline, and adjusted to a 0.5 McFarland turbidity standard. Bacterial suspensions were then diluted in cation adjusted Mueller-Hinton Broth (MHB II; BBL) to yield a final inoculum of approximately 5×10^5 colony-forming units (CFU)/mL. […]

E. coli strain 25922 = test: MIC by broth microdilution, E. coli strain 25922; format: cell-based; conditions: Escherichia coli, 25922, E. coli strain 25922; read-out: Ec 25922 (MIC)
Procedure: as §1
Minimal Inhibitory Concentrations (MICs) were determined by the broth microdilution method in accordance with Clinical and Laboratories Institute (CLSI) guidelines. In brief, fresh overnight bacterial cultures were suspended in sterile saline, and adjusted to a 0.5 McFarland turbidity standard. Bacterial suspensions were then diluted in cation adjusted Mueller-Hinton Broth (MHB II; BBL) to yield a final inoculum of approximately 5×10^5 colony-forming units (CFU)/mL. A master plate of antibiotics was prepared at a concentration equivalent to hundred-fold the highest desired final concentration in 100% dimethyl sulfoxide (DMSO). The master antibiotic plate was then diluted by serial twofold dilution with a multichannel pipette. The resulting dilution series of compounds were diluted 1:10 with sterile water leading to a 10% DMSO final concentration. A volume of 10 μL of the drug dilution series was transferred to 96-well assay plates. Assay plates were inoculated with 90 μL of bacterial suspensions and incubated at 35-37° C. for 20 hrs. The assay plates were read using a microtiter plate reader (Molecular Devices) at 600 nm as well as by visual observation with a reading mirror. The lowest concentration of the compound that prevented visible growth was recorded as the MIC. Performance of the assay was monitored by testing aztreonam against laboratory quality control strains in accordance with guidelines of the CLSI.

Row | SMILES | MIC (E. coli containing KPC-2) [µg/mL] | MIC (E. coli strain 25922) [µg/mL]
1 | N=C(N[C@H]1CCNC1)c1ccc(OC[C@H](O/N=C(\C(=O)N[C@@H]2C(=O)N(S(=O)(=O)O)[C@@H]2Cn2cncn2)c2csc(N)n2)C(=O)O)cc1 [Example 71, (S)-2-(((Z)-(2-(((2R,3S)-2-((1H-1,2,4-triazol-1-yl)methyl)-4-oxo-1-sulfoazetidin-3-yl)amino)-1-(2-aminothiazol-4-yl)-2-oxoethylidene)amino)oxy)-3-(4-(N—((S)-pyrrolidin-3-yl)carbamimidoyl)phenoxy)propanoic acid] | 0.25 (≈ 0.361 µM) | 0.25 (≈ 0.361 µM)
2 | CC(C)(O/N=C(\C(=O)N[C@@H]1C(=O)N(S(=O)(=O)O)[C@@H]1Cn1cc(CCN2CCNCC2)nn1)c1csc(N)n1)C(=O)O [Example 42, 2-(((Z)-(1-(2-aminothiazol-4-yl)-2-oxo-2-(((3S,4R)-2-oxo-4-((4-(2-(piperazin-1-yl)ethyl)-1H-1,2,3-triazol-1-yl)methyl)-1-sulfoazetidin-3-yl)amino)ethylidene)amino)oxy)-2-methylpropanoic acid] | 2 (≈ 3.25 µM) | 1.4 (≈ 2.28 µM)
3 | N=C(NCc1cnn(C[C@@H]2[C@H](NC(=O)/C(=N\OC3(C(=O)O)CC3)c3csc(N)n3)C(=O)N2S(=O)(=O)O)n1)NC1CCNCC1 [Example 128, 1-(((Z)-(1-(2-aminothiazol-4-yl)-2-oxo-2-(((3S,4R)-2-oxo-4-((4-((3-(piperidin-4-yl)guanidino)methyl)-2H-1,2,3-triazol-2-yl)methyl)-1-sulfoazetidin-3-yl)amino)ethylidene)amino)oxy)cyclopropanecarboxylic acid] | 1 (≈ 1.53 µM) | 0.5 (≈ 0.764 µM)
4 | NC[C@@H]1CN(C[C@@H]2[C@H](NC(=O)/C(=N\OC3(C(=O)O)CC3)c3csc(N)n3)C(=O)N2S(=O)(=O)O)C(=O)O1 [Example 25, 1-(((Z)-(2-(((2R,3S)-2-(((R)-5-(aminomethyl)-2-oxooxazolidin-3-yl)methyl)-4-oxo-1-sulfoazetidin-3-yl)amino)-1-(2-aminothiazol-4-yl)-2-oxoethylidene)amino)oxy)-cyclopropanecarboxylic acid] | ≤ 0.06 | 0.125 (≈ 0.228 µM)
5 | CC(C)(O/N=C(\C(=O)N[C@@H]1C(=O)N(S(=O)(=O)O)[C@@H]1Cn1cnc(C(N)=O)n1)c1csc(N)n1)C(=O)O [Example 74, 2-(((Z)-(1-(2-aminothiazol-4-yl)-2-(((2R,3S)-2-((3-carbamoyl-1H-1,2,4-triazol-1-yl)methyl)-4-oxo-1-sulfoazetidin-3-yl)amino)-2-oxoethylidene)amino)oxy)-2-methylpropanoic acid] | 32 (≈ 58.7 µM) | 8 (≈ 14.7 µM)
6 | CC(C)(O/N=C(\C(=O)N[C@@H]1C(=O)N(S(=O)(=O)O)[C@@H]1CN1C(=O)CCC1=O)c1csc(N)n1)C(=O)O [Example 121, 2-(((Z)-(1-(2-aminothiazol-4-yl)-2-(((2R,3S)-2-((2,5-dioxopyrrolidin-1-yl)methyl)-4-oxo-1-sulfoazetidin-3-yl)amino)-2-oxoethylidene)amino)oxy)-2-methylpropanoic acid] | 0.25 (≈ 0.469 µM) | 0.25 (≈ 0.469 µM)
7 | CC(C)(O/N=C(\C(=O)N[C@@H]1C(=O)N(S(=O)(=O)O)[C@@H]1Cn1ccc(N)n1)c1csc(N)n1)C(=O)O [Example 34, 2-(((Z)-(2-(((2R,3S)-2-((3-amino-1H-pyrazol-1-yl)methyl)-4-oxo-1-sulfoazetidin-3-yl)amino)-1-(2-aminothiazol-4-yl)-2-oxoethylidene)amino)oxy)-2-methylpropanoic acid] | > 64 | > 64
8 | NCC(=O)NCc1cnn(C[C@@H]2[C@H](NC(=O)/C(=N\OC3(C(=O)O)CC3)c3csc(N)n3)C(=O)N2S(=O)(=O)O)n1 [Example 134, 1-(((Z)-(2-(((2R,3S)-2-((4-((2-aminoacetamido)methyl)-2H-1,2,3-triazol-2-yl)methyl)-4-oxo-1-sulfoazetidin-3-yl)amino)-1-(2-aminothiazol-4-yl)-2-oxoethylidene)amino)oxy)cyclopropanecarboxylic acid] | 0.25 (≈ 0.426 µM) | 0.5 (≈ 0.852 µM)
9 | N=C(N[C@@H]1CCNC1)c1ccc(OC[C@H](O/N=C(\C(=O)N[C@@H]2C(=O)N(S(=O)(=O)O)[C@@H]2Cn2cncn2)c2csc(N)n2)C(=O)O)cc1 [Example 73, (S)-2-(((Z)-(2-(((2R,3S)-2-((1H-1,2,4-triazol-1-yl)methyl)-4-oxo-1-sulfoazetidin-3-yl)amino)-1-(2-aminothiazol-4-yl)-2-oxoethylidene)amino)oxy)-3-(4-(N—((R)-pyrrolidin-3-yl)carbamimidoyl)phenoxy)propanoic acid] | 0.25 (≈ 0.361 µM) | 0.25 (≈ 0.361 µM)
10 | CC(C)(O/N=C(\C(=O)N[C@@H]1C(=O)N(S(=O)(=O)O)[C@@H]1Cc1cn(CCN)nn1)c1csc(N)n1)C(=O)O [Example 101, 2-(((Z)-(2-(((2R,3S)-2-((1-(2-aminoethyl)-1H-1,2,3-triazol-4-yl)methyl)-4-oxo-1-sulfoazetidin-3-yl)amino)-1-(2-aminothiazol-4-yl)-2-oxoethylidene)amino)oxy)-2-methylpropanoic acid] | 1 (≈ 1.83 µM) | 1 (≈ 1.83 µM)
11 | N=C(NC1CCNCC1)c1ccc(OC[C@H](O/N=C(\C(=O)N[C@@H]2C(=O)N(S(=O)(=O)O)[C@@H]2CN2CCOC2=O)c2csc(N)n2)C(=O)O)cc1 [Example 64, (S)-2-(((Z)-(1-(2-aminothiazol-4-yl)-2-oxo-2-(((3S,4R)-2-oxo-4-((2-oxooxazolidin-3-yl)methyl)-1-sulfoazetidin-3-yl)amino)ethylidene)amino)oxy)-3-(4-(N-(piperidin-4-yl)carbamimidoyl)phenoxy)propanoic acid] | 0.25 (≈ 0.345 µM) | 0.5 (≈ 0.691 µM)
12 | C[C@@H](O/N=C(\C(=O)N[C@@H]1C(=O)N(S(=O)(=O)O)[C@@H]1Cn1cncn1)c1csc(N)n1)C(=O)O [Example 30, (R)-2-(((Z)-(2-(((2R,3S)-2-((1H-1,2,4-triazol-1-yl)methyl)-4-oxo-1-sulfoazetidin-3-yl)amino)-1-(2-aminothiazol-4-yl)-2-oxoethylidene)amino)oxy)propanoic acid] | 1 (≈ 2.05 µM) | 1 (≈ 2.05 µM)
13 | N=C(NCc1cnn(C[C@@H]2[C@H](NC(=O)/C(=N\OC3(C(=O)O)CC3)c3csc(N)n3)C(=O)N2S(=O)(=O)O)n1)N[C@H]1CCNC1 [Example 141, 1-(((Z)-(1-(2-aminothiazol-4-yl)-2-oxo-2-(((3S,4R)-2-oxo-4-((4-((3-((S)-pyrrolidin-3-yl)guanidino)methyl)-2H-1,2,3-triazol-2-yl)methyl)-1-sulfoazetidin-3-yl)amino)ethylidene)amino)oxy)cyclopropanecarboxylic acid] | 0.5 (≈ 0.78 µM) | 0.5 (≈ 0.78 µM)
